Ki data for 11 compounds are collected here from BindingDB's records for PubMed 8558445 (Abbott Laboratories, 1996).

In the test the target is Neuronal acetylcholine receptor subunit alpha-4 (Homo sapiens, UniProt P43681).
Sequence of Neuronal acetylcholine receptor subunit alpha-4 (P43681 whole entry): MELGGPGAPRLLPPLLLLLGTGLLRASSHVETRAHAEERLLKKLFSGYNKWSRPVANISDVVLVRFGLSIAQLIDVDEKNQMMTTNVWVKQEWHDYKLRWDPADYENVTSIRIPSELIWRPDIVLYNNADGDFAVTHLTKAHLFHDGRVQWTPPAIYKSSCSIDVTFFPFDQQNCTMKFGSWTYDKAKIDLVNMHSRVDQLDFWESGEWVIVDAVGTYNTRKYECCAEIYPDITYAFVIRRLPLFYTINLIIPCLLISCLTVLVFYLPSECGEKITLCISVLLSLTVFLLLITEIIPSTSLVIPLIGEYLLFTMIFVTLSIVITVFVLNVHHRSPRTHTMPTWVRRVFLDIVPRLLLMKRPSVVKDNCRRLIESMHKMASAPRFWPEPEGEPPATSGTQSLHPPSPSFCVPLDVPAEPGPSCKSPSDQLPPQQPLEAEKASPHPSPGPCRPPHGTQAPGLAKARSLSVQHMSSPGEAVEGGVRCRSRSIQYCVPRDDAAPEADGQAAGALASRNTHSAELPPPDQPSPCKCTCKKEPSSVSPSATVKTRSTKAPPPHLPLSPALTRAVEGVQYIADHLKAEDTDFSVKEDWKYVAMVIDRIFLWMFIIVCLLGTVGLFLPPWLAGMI
The compound `COc1cc2c3cc1Oc1cc(ccc1O)C[C@H]1c4c(cc(OC)c(O)c4Oc4ccc(cc4)C[C@@H]3N(C)CC2)CC[N+]1(C)C` [CAS_57-94-3] showed an inhibitory constant (Ki) of 3480 nM.
`CNC1(C)C2CCC(C2)C1(C)C` (stereo unspecified) [Methyl-(2,3,3-trimethyl-bicyclo[2.2.1]hept-2-yl)-amine(Mecamylamine)]: the Ki was > 10000 nM.
`C[N+]1(C)CCN(c2ccccc2)CC1` [DMPP] returned an inhibitory constant (Ki) of 10.7 nM.
`O=c1cccc2n1C[C@H]1CNC[C@H]2C1` [(1S,9R)-7,11-diazatricyclo[7.3.1.0~2,7~]trideca-2,4-dien-6-one] yielded an inhibitory constant (Ki) of 0.43 nM.
As for `CCN1C[C@]2(COC(=O)c3ccccc3-n3c(O)cc(C)c3O)CC[C@H](OC)[C@]34C5C[C@@H]6[C@@H](OC)C[C@@](O)(C5[C@H]6OC)[C@@](O)(C13)[C@@H](OC)C24` (stereo partly drawn) [[(1S,4S,5R,6S,8R,9R,13S,16S,18S)-11-ethyl-8,9-dihydroxy-4,6,16,18-tetramethoxy-11-azahexacyclo[7.7.2.1^{2,5}.0^{1,10}.0^{3,8}.0^{13,17}]nonadecan-13-yl]methyl 2-[(3S)-3-methyl-2,5-dioxopyrrolidin-1-yl]benzoate], the figure is 3210 nM.
Turning to `C[N+](C)(C)CC[N+]1(C)Cc2c(Cl)c(Cl)c(Cl)c(Cl)c2C1` [CAS_6243], the inhibitory constant (Ki) is > 10000 nM.
As for `C[N+](C)(C)CCCCCCCCCC[N+](C)(C)C` [Decamethonium Iodide], the figure is 962 nM; as for `C[N+](C)(C)CCOC(N)=O` [(2-Hydroxyethyl)trimethyl ammonium chloride carbamate], 68.2 nM.
Turning to `c1cncc(C2CCCCN2)c1` (stereo not drawn) [(+-)-anabasine], affinity was put at a Ki of 37.6 nM.
In turn, `C=C(C=O)C[C@H]1C[C@H](O)[C@]2(C)O[C@@H]3C[C@@H]4O[C@@H]5C[C@]6(C)O[C@]7(C)CC[C@@H]8O[C@@H]9C[C@]%10(C)O[C@@H]%11C(C)=CC(=O)O[C@H]%11C[C@H]%10O[C@H]9C[C@@H](C)[C@H]8O[C@H]7C[C@H]6O[C@@]5(C)C/C=C\[C@H]4O[C@H]3C[C@H]2O1` gave a Ki of 4730 nM.
Turning to `CN1[C@@H](C[C@@H](O)c2ccccc2)CCC[C@H]1CC(=O)c1ccccc1` [Lobeline], the affinity corresponds to a Ki of 1.92 nM.
